From paper PMC5796108, “Effects of Acanthopanax senticosus on Brain Injury Induced by Simulated Spatial Radiation in Mouse Model Based on Pharmacokinetics and Comparative Proteomics” (International Journal of Molecular Sciences, 2018)
Like-named read-outs stand apart in the source and are kept apart here.

Test: Pharmacokinetics of syringin and eleutheroside E in mice's serum after oral AS extract (HPLC, PKsolver)
Type: in vivo, Kun-Ming mice
Details: oral AS extract 235.7 mg/kg; for MRT inf: read-out: MRT(0→∞)
Method: The radiation lasted 30 min. […] The serum was preserved at −20 °C standby.
The content of syringin and eleutheroside E in the samples for each time points was detected by HPLC. An Agilent 1100 series liquid chromatograph (Agilent Technologies, Santa Clara, CA, USA), equipped with a quaternary gradient pump and a UV detector was used. A HPLC method was developed using a reversed-phase C18 column (Agilent-TC, 250 mm × 4.6 mm, 5 μm i.d.) with the column temperature at 30 °C. […] The retention times are 6.041 min and 8.500 min for Syringin and eleutheroside E respectively. Contents of syringin and eleutheroside E were expressed in each case as nanograms of syringin and eleutheroside E per milliliter of mice serum.

[1] = Radiation-AS-Treatment (60Co-γ, 4 Gy)
[2] = male, Kun-Ming, mouse, po, 235.7 mg/kg, Normal-AS-Treatment
[3] = male, Kun-Ming, mouse, po, 235.7 mg/kg, Radiation-AS-Treatment (60Co-γ, 4 Gy)

## COc1cc([C@H]2OC[C@@H]3[C@@H]2CO[C@H]3c2cc(OC)c(O[C@@H]3O[C@H](CO)[C@@H](O)[C@H](O)[C@H]3O)c(OC)c2)cc(OC)c1O[C@@H]1O[C@H](CO)[C@@H](O)[C@H](O)[C@H]1O [Eleutheroside E]
Normal-AS-Treatment
  AUC(0→∞): 9.93 × 10^3 ± 1.81 × 10^3 ng⋅h⋅mL^−1
  CL: 8.30 × 10^−2 ± 7.32 × 10^−3 L⋅h^−1⋅g^−1
  Cmax: 2.07 × 10^3 ± 6.61 × 10^2 ng⋅mL^−1
  MRT(0→∞): 14.8 ± 0.597 h
  Tmax: 0.5 ± 0.192 h
  t1/2: 17.2 ± 0.722 h
[1]
  AUC(0→∞): 1.20 × 10^4 ± 3.63 × 10^3 ng⋅h⋅mL^−1
  CL: 6.89 × 10^−2 ± 7.17 × 10^−3 L⋅h^−1⋅g^−1
  Cmax: 2.11 × 10^3 ± 5.93 × 10^2 ng⋅mL^−1
  MRT(0→∞): 21.1 ± 0.701 h
  Tmax: 0.5 ± 0.321 h
  t1/2: 2.51 × 10^1 ± 5.56 × 10^0 h

## COc1cc(/C=C/CO)cc(OC)c1O[C@@H]1O[C@H](CO)[C@@H](O)[C@H](O)[C@H]1O [Syringin]
Normal-AS-Treatment
  CL: 2.91 × 10^0 ± 5.65 × 10^−1 L⋅h^−1⋅g^−1
  Vd: 2.72 × 10^1 ± 8.73 × 10^−1 L⋅g^−1
[1]
  CL: 1.54 × 10^0 ± 1.86 × 10^−1 L⋅h^−1⋅g^−1
  Tmax: 0.5 ± 0.237 h
  Vd: 2.17 × 10^1 ± 9.19 × 10^−1 L⋅g^−1
male, Kun-Ming, mouse, Normal-AS-Treatment, read-out: Tmax
  Tmax: 0.5 h
[2]
  AUC(0-inf): 0.283 µg·h/mL
  half-life: 6.47 h
  MRT inf: 4.58 h
male, Kun-Ming, mouse, po, 235.7 mg/kg, Normal-AS-Treatment, read-out: Cmax
  Cmax: 0.17 µg/mL
[3]
  AUC(0-inf): 0.534 µg·h/mL
  half-life: 9.72 h
  MRT inf: 5.95 h
male, Kun-Ming, mouse, po, 235.7 mg/kg, Radiation-AS-Treatment (60Co-γ, 4 Gy), read-out: Cmax
  Cmax: 0.212 µg/mL
